Test results as given in paper PMC2982120 (2010).

T1: Jen1p (Saccharomyces cerevisiae, UniProt P36035)
T1 sequence (P36035 2-616): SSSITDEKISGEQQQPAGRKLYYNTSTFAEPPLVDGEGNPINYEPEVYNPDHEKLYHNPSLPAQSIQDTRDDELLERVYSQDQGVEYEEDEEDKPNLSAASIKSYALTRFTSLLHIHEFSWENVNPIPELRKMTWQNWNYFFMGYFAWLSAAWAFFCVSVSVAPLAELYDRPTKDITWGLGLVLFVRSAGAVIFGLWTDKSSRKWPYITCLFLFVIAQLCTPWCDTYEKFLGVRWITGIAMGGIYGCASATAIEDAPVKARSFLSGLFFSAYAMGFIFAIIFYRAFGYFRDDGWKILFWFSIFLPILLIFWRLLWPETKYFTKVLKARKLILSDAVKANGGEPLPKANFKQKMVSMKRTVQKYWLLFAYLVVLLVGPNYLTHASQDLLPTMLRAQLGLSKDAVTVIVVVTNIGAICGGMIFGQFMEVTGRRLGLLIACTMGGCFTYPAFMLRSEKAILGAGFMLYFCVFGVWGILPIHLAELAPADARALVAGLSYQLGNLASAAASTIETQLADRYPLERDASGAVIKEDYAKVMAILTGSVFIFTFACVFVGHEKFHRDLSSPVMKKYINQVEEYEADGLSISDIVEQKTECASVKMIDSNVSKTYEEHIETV

B1: Jen1p (Saccharomyces cerevisiae S288C) (protein)
chain: T1 sequence (P36035 2-616)

Legend:
Jen1p = molecular target: T1, Jen1p; test: […]-lactate uptake in Jen1p-overexpressing yeast; format: cell-based
selenite uptake = substrate: O=[Se](O)O; test: selenite uptake; format: cell-based, Saccharomyces cerevisiae; conditions: competitive with lactate

| Molecule | Ki (Jen1p) [µM] | Km (selenite uptake) [µM] |
| --- | --- | --- |
| CC(O)C(=O)O (centres unmarked) [lactate] | 900 |  |
| B1 |  | 910 ± 130 |
